Experimental data from the supplement of paper PMC10307832.

Experiments:
Experiment in all cases: relative viability (nuclei count vs DMSO), 5 days (fraction); higher = more cells survive
Bosutinib + Navitoclax = compound: COc1cc(Nc2c(C#N)cnc3cc(OCCCN4CCN(C)CC4)c(OC)cc23)c(Cl)cc1Cl [Bosutinib] + CC1(C)CCC(c2ccc(Cl)cc2)=C(CN2CCN(c3ccc(C(=O)NS(=O)(=O)c4ccc(N[C@H](CCN5CCOCC5)CSc5ccccc5)c(S(=O)(=O)C(F)(F)F)c4)cc3)CC2)C1 [Navitoclax] (partner 0.5 µM)
How it was run: (§1)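 After 5 days of treatment, lung cancer cells in 1536-well plates were fixed and stained in a single step (final 0.05% Triton X-100, 1% formaldehyde, 1 ug/ml Hoechst) and their nuclei counted on 4× images. Treatment had been applied by pin tool the day after seeding as one drug alone or as a fixed anchor-drug dose with five library-drug doses (not always all listed) in √10 steps. Relative viability is the nuclei count of treated wells divided by that of vehicle wells, and values are medians of duplicate plates.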

Bosutinib + Foretinib = compound: COc1cc(Nc2c(C#N)cnc3cc(OCCCN4CCN(C)CC4)c(OC)cc23)c(Cl)cc1Cl [Bosutinib] + COc1cc2c(Oc3ccc(NC(=O)C4(C(=O)Nc5ccc(F)cc5)CC4)cc3F)ccnc2cc1OCCCN1CCOCC1 [Foretinib] (partner 0.25 µM)
How it was run: as §1

Bosutinib + OSI-027 = compound: COc1cc(Nc2c(C#N)cnc3cc(OCCCN4CCN(C)CC4)c(OC)cc23)c(Cl)cc1Cl [Bosutinib] + COc1cccc2cc(-c3nc([C@H]4CC[C@H](C(=O)O)CC4)n4ncnc(N)c34)[nH]c12 [OSI-027] (partner 0.5 µM)
How it was run: as §1

Bosutinib + Tozasertib = compound: COc1cc(Nc2c(C#N)cnc3cc(OCCCN4CCN(C)CC4)c(OC)cc23)c(Cl)cc1Cl [Bosutinib] + Cc1cc(Nc2cc(N3CCN(C)CC3)nc(Sc3ccc(NC(=O)C4CC4)cc3)n2)n[nH]1 [Tozasertib] (partner 0.1 µM)
How it was run: as §1

Bosutinib + Pemetrexed = compound: COc1cc(Nc2c(C#N)cnc3cc(OCCCN4CCN(C)CC4)c(OC)cc23)c(Cl)cc1Cl [Bosutinib] + Nc1nc2[nH]cc(CCc3ccc(C(=O)N[C@@H](CCC(=O)O)C(=O)O)cc3)c2c(=O)[nH]1 [Pemetrexed] (partner 0.2 µM)
How it was run: as §1

Cell Line	relative viability (Bosutinib + Navitoclax; first compound 0.01 µM)	relative viability (Bosutinib + Navitoclax; first compound 0.03162 µM)	relative viability (Bosutinib + Navitoclax; first compound 0.1 µM)	relative viability (Bosutinib + Navitoclax; first compound 1 µM)	relative viability (Bosutinib + Foretinib; first compound 0.01 µM)	relative viability (Bosutinib + Foretinib; first compound 0.03162 µM)	relative viability (Bosutinib + Foretinib; first compound 0.1 µM)	relative viability (Bosutinib + Foretinib; first compound 1 µM)	relative viability (Bosutinib + OSI-027; first compound 0.01 µM)	relative viability (Bosutinib + OSI-027; first compound 0.03162 µM)	relative viability (Bosutinib + OSI-027; first compound 0.1 µM)	relative viability (Bosutinib + OSI-027; first compound 1 µM)	relative viability (Bosutinib + Tozasertib; first compound 0.01 µM)	relative viability (Bosutinib + Tozasertib; first compound 0.03162 µM)	relative viability (Bosutinib + Tozasertib; first compound 0.1 µM)	relative viability (Bosutinib + Tozasertib; first compound 1 µM)	relative viability (Bosutinib + Pemetrexed; first compound 0.01 µM)	relative viability (Bosutinib + Pemetrexed; first compound 0.03162 µM)	relative viability (Bosutinib + Pemetrexed; first compound 0.1 µM)	relative viability (Bosutinib + Pemetrexed; first compound 1 µM)
NCI-H2405	0.943	0.812	0.892	0.477	1.03	1.07	1.09	0.832	0.634	0.619	0.615	0.629	0.738	0.796	0.743	0.661	1.14	1.08	1.06	0.824
NCI-H3122	0.99	0.972	1.01	1.03	1.04	0.979	0.926	0.993	1.05	1.04	1.03	1.17	0.495	0.547	0.405	0.431	0.201	0.199	0.207	0.202
PC-3 [JPC-3]	0.856	0.797	0.807	0.768	1	0.993	1.05	0.759	0.812	0.685	0.745	0.54	0.856	0.854	0.92	0.819	1.1	1.08	1.11	0.688
PC-14	0.967	0.975	1.02	0.474	0.963	0.975	0.98	0.255	0.961	0.688	0.773	0.192	0.581	0.501	0.473	0.208	0.134	0.135	0.13	0.145
RERF-LC-KJ	0.845	1.08	0.893	0.743	0.893	0.888	0.815	0.867	0.594	0.59	0.607	0.473	0.58	0.436	0.491	0.599	0.504	0.495	0.492	0.478
SK-LU-1	0.714	0.929	0.779	0.739	0.841	0.85	0.813	0.449	0.335	0.362	0.331	0.222	0.305	0.289	0.341	0.283	1.02	0.899	0.982	0.693
SK-MES-1	1.21	0.97	1.1	1.3	0.966	0.955	0.97	0.747	0.64	0.681	0.671	0.38	0.95	0.927	0.844	0.854	0.94	1.03	0.938	0.556
SW 1573	0.996	0.998	0.979	0.919	0.913	0.825	0.693	0.858	0.695	0.67	0.656	0.612	0.24	0.166	0.119	0.202	0.796	0.791	0.911	0.838
UMC-11	0.256	0.316	0.333	0.33	0.979	1.07	1.03	0.94	0.48	0.478	0.423	0.402	0.202	0.191	0.189	0.214	0.795	0.755	0.807	0.707
